The source of these data is patent US20250059185A1 (Hoffmann-La Roche Inc., priority 2021, published 2025).

The term IC50 denotes the concentration needed to halve the response being measured. Low values mean higher potency, high ones lower potency.

Chain of MAGL (Q99685 whole entry, species assumed): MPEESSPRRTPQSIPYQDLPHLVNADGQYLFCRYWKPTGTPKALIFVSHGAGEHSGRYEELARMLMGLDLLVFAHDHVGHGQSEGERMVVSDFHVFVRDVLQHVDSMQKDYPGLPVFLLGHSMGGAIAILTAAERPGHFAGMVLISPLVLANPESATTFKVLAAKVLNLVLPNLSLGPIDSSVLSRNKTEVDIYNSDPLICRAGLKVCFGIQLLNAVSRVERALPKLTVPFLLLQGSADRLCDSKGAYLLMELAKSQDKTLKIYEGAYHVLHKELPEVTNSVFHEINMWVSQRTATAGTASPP

The target in this assay is MAGL (Homo sapiens (Human), UniProt Q99685). Description: 2-AG assay (MAGL inhibitory activity, hydrolysis of 2-arachidonoylglycerol followed by mass spectrometry). It is filed as biochemical. To be noted: 50 pM MAGL protein, 15 min pre-incubation, 30 min incubation at RT. Put shortly:
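Human MAGL (50 pM final) preincubated 15 min at RT with compound (3-fold dilutions, 12.5 μM to 0.8 pM final) in 50 mM TRIS, 1 mM EDTA, 0.01% Tween-20, 2.5% DMSO. Reaction with […] 2-AG ran 30 min at RT, then was quenched with acetonitrile containing d8-arachidonic acid. Arachidonic acid measured by SPE–triple-quad MS (negative ESI), activity from the arachidonic/d8-arachidonic acid intensity ratio.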
As for `C[C@H]1c2nn(C)c(-c3cc(F)c(F)c(F)c3F)c2CCN1C(=O)c1cc(F)cc(-c2c[nH]c(C#N)c2)c1Cl` [Example 90, 4-[2-chloro-3-[(7S)-2,7-dimethyl-3-(2,3,4,5-tetrafluorophenyl)-5,7-dihydro-4H-pyrazolo[3,4-c]pyridine-6-carbonyl]-5-fluoro-phenyl]-1H-pyrrole-2-carbonitrile], the 50% inhibitory concentration (IC50) was 24.6 nM. The result for `C[C@H]1c2nn(C)c(-c3cc(F)cc(F)c3)c2CCN1C(=O)c1cc(F)cc(N2CC(S(C)(=O)=O)C2)c1Cl` [Example 23, [2-Chloro-5-fluoro-3-(3-methylsulfonylazetidin-1-yl)phenyl]-[(7S)-3-(3,5-difluorophenyl)-2,7-dimethyl-5,7-dihydro-4H-pyrazolo[3,4-c]pyridin-6-yl]methanone] reads 27 nM; that for `COc1cccc(C(=O)N2CCc3c(nn(C)c3-c3cncc(C(F)(F)F)n3)[C@@H]2C)c1Cl` [Example 8, (2-Chloro-3-methoxy-phenyl)-[(7S)-2,7-dimethyl-3-[6-(trifluoromethyl)pyrazin-2-yl]-5,7-dihydro-4H-pyrazolo[3,4-c]pyridin-6-yl]methanone], 183 nM.

As to `COc1cccc(C(=O)N2CCc3c(nn(C)c3-c3cc(Cl)cc(CNS(C)(=O)=O)c3)[C@@H]2C)c1Cl` [Example 1, N-[[3-Chloro-5-[(7S)-6-(2-chloro-3-methoxy-benzoyl)-2,7-dimethyl-5,7-dihydro-4H-pyrazolo[3,4-c]pyridin-3-yl]phenyl]methyl]methanesulfonamide], the IC50 was 14 nM. In the case of `C[C@@H]1c2nn(C)c(-c3cc(F)cc(F)c3)c2CCN1C(=O)c1cc(F)cc(OCC2CNC(=O)O2)c1Cl` (single isomer, unassigned) [Example 52, 5-[[2-Chloro-3-[3-(3,5-difluorophenyl)-2,7-dimethyl-5,7-dihydro-4H-pyrazolo[3,4-c]pyridine-6-carbonyl]-5-fluoro-phenoxy]methyl]oxazolidin-2-one] it was 2000 nM; in that of `CC1c2nn(C)c(-c3cc(Cl)cc(S(N)(=O)=O)c3)c2CCN1C(=O)c1ncn(-c2ccc[nH]c2=O)n1` (stereo not shown) [Example 59, 3-Chloro-5-[2,7-dimethyl-6-[1-(2-oxo-1H-pyridin-3-yl)-1,2,4-triazole-3-carbonyl]-5,7-dihydro-4H-pyrazolo[3,4-c]pyridin-3-yl]benzenesulfonamide], 1070 nM. The result for `CNS(=O)(=O)Cc1cc(Cl)cc(-c2c3c(nn2C)[C@H](C)N(C(=O)c2cccc(OC)c2Cl)CC3)c1` [Example 3, 1-[3-Chloro-5-[(7S)-6-(2-chloro-3-methoxy-benzoyl)-2,7-dimethyl-5,7-dihydro-4H-pyrazolo[3,4-c]pyridin-3-yl]phenyl]-N-methyl-methanesulfonamide] reads 63 nM; that for `C[C@H]1c2nn(C)c(-c3cncc(C(F)(F)F)n3)c2CCN1C(=O)c1cc(F)cc(-c2ccc(=O)[nH]c2)c1Cl` [Example 68, 5-[2-chloro-3-[(7S)-2,7-dimethyl-3-[6-(trifluoromethyl)pyrazin-2-yl]-5,7-dihydro-4H-pyrazolo[3,4-c]pyridine-6-carbonyl]-5-fluoro-phenyl]-1H-pyridin-2-one], 4290 nM; that for `CC1c2nn(C)c(-c3cc(F)cc(F)c3)c2CCN1C(=O)c1cc(F)cc(C2=CC(Cl)C(=O)N=C2)c1Cl` (stereo not shown) [Example 97, 3-chloro-5-[2-chloro-3-[3-(3,5-difluorophenyl)-2,7-dimethyl-5,7-dihydro-4H-pyrazolo[3,4-c]pyridine-6-carbonyl]-5-fluoro-phenyl]-3H-pyridin-2-one], 8.44 nM. The result for `CC1c2nn(C)c(-c3cc(Cl)cc(C4(NS(C)(=O)=O)CC4)c3)c2CCN1C(=O)c1cc(F)cc(CCc2c[nH]nn2)c1Cl` (stereo not shown) [Example 87, N-[1-[3-chloro-5-[6-[2-chloro-5-fluoro-3-[2-(H-triazol-4-yl)ethyl]benzoyl]-2,7-dimethyl-5,7-dihydro-4H-pyrazolo[3,4-c]pyridin-3-yl]phenyl]cyclopropyl]methanesulfonamide] reads 8.15 nM; that for `C[C@H]1c2nn(C)c(-c3cc(F)cc(F)c3)c2CCN1C(=O)c1ncn(-c2cc(Cl)cnc2O)n1` [Example 35, [1-(5-Chloro-2-hydroxy-3-pyridyl)-1,2,4-triazol-3-yl]-[(7S)-3-(3,5-difluorophenyl)-2,7-dimethyl-5,7-dihydro-4H-pyrazolo[3,4-c]pyridin-6-yl]methanone], 104 nM; that for `C[C@H]1c2nn(C)c(-c3cc(F)cc(F)c3)c2CCN1C(=O)c1cc(F)cc(OC[C@@H]2CNC(=O)N2)c1Cl` (single isomer, unassigned) [Example 114], 929 nM.

In turn, `C[C@H]1c2nn(C)c(-c3cc(F)cc(F)c3)c2CCN1C(=O)c1cc(F)cc(CCc2c[nH]nn2)c1Cl` [Example 104, [2-chloro-5-fluoro-3-[2-(JH-triazol-4-yl)ethyl]phenyl]-[(7S)-3-(3,5-difluorophenyl)-2,7-dimethyl-5,7-dihydro-4H-pyrazolo[3,4-c]pyridin-6-yl]methanone] yielded a 50% inhibitory concentration (IC50) of 42.4 nM. The result for `CC1c2nn(C)c(-c3cc(Cl)cc(S(N)(=O)=O)c3)c2CCN1C(=O)c1cc(F)cc(-c2nc[nH]n2)c1Cl` (stereo not shown) [Example 61, 3-Chloro-5-[6-[2-chloro-5-fluoro-3-(1H-1,2,4-triazol-3-yl)benzoyl]-2,7-dimethyl-5,7-dihydro-4H-pyrazolo[3,4-c]pyridin-3-yl]benzenesulfonamide] reads 77 nM; that for `C[C@@H]1c2nn(C)c(-c3cc(F)cc(F)c3)c2CCN1C(=O)c1ccc(CCC2CNC(=O)C2)cc1Cl` (single isomer, unassigned) [Example 46, 4-[2-[3-Chloro-4-[3-(3,5-difluorophenyl)-2,7-dimethyl-5,7-dihydro-4H-pyrazolo[3,4-c]pyridine-6-carbonyl]phenyl]ethyl]pyrrolidin-2-one], 258 nM; that for `C[C@H]1c2nn(C)c(-c3cc(Cl)cc(C4(NS(C)(=O)=O)CC4)c3)c2CCN1C(=O)c1cc(F)cc(-c2c[nH]c(C#N)c2)c1Cl` [Example 85, N-[1-[3-chloro-5-[(7S)-6-[2-chloro-3-(5-cyano-1H-pyrrol-3-yl)-5-fluoro-benzoyl]-2,7-dimethyl-5,7-dihydro-4H-pyrazolo[3,4-c]pyridin-3-yl]phenyl]cyclopropyl]methanesulfonamide], 13.8 nM. The result for `C[C@H]1c2nn(C)c(-c3cc(F)cc(F)c3)c2CCN1C(=O)c1cc(F)cc(OCC2CNC(=O)C2)c1Cl` (stereo in doubt) [Example 37, 4-[[2-Chloro-3-[3-(3,5-difluorophenyl)-2,7-dimethyl-5,7-dihydro-4H-pyrazolo[3,4-c]pyridine-6-carbonyl]-5-fluoro-phenoxy]methyl]pyrrolidin-2-one] reads 5 nM; that for `CC1c2nn(C)c(-c3cc(F)cc(F)c3)c2CCN1C(=O)c1cc(-c2cccc(C#N)c2)ccc1F` (stereo not shown) [Example 26, 3-[3-[3-(3,5-Difluorophenyl)-2,7-dimethyl-5,7-dihydro-4H-pyrazolo[3,4-c]pyridine-6-carbonyl]-4-fluoro-phenyl]benzonitrile], 84 nM.

In turn, `C[C@H]1c2nn(C)c(-c3cc(Cl)cc(C4(NS(C)(=O)=O)CC4)c3)c2CCN1C(=O)c1ncn(-c2cc(Cl)cnc2O)n1` [Example 91, N-[1-[3-chloro-5-[(7S)-6-[1-(5-chloro-2-hydroxy-3-pyridyl)-1,2,4-triazole-3-carbonyl]-2,7-dimethyl-5,7-dihydro-4H-pyrazolo[3,4-c]pyridin-3-yl]phenyl]cyclopropyl]methanesulfonamide] showed a half-maximal inhibitory concentration (IC50) of 1730 nM. In turn, `C[C@H]1c2nn(C)c(-c3cc(F)cc(F)c3)c2CCN1C(=O)c1ncn(-c2cc(F)cnc2O)n1` [Example 34, [(7S)-3-(3,5-Difluorophenyl)-2,7-dimethyl-5,7-dihydro-4H-pyrazolo[3,4-c]pyridin-6-yl]-[1-(5-fluoro-2-hydroxy-3-pyridyl)-1,2,4-triazol-3-yl]methanone] showed a concentration for half-maximal inhibition (IC50) of 149 nM. In the case of `C[C@H]1c2nn(C)c(-c3cc(F)cc(F)c3)c2CCN1C(=O)c1cc(F)cc(OC[C@H]2CNC(=O)N2)c1Cl` [Example 115, (4R)-4-[[2-chloro-3-[(7S)-3-(3,5-difluorophenyl)-2,7-dimethyl-5,7-dihydro-4H-pyrazolo[3,4-c]pyridine-6-carbonyl]-5-fluoro-phenoxy]methyl]imidazolidin-2-one] it was 4.88 nM.

With `C[C@H]1c2nn(C)c(-c3cc(F)cc(F)c3)c2CCN1C(=O)c1ncn(-c2ccc(O)nc2)n1` [Example 33, [(7S)-3-(3,5-Difluorophenyl)-2,7-dimethyl-5,7-dihydro-4H-pyrazolo[3,4-c]pyridin-6-yl]-[1-(6-hydroxy-3-pyridyl)-1,2,4-triazol-3-yl]methanone], the IC50 was determined as 163 nM. The result for `C[C@@H]1c2nn(C)c(-c3cc(F)cc(F)c3)c2CCN1C(=O)c1cc(F)cc(-c2ccc(=O)[nH]c2)c1Cl` [Example 30, 5-[2-Chloro-3-[(7R)-3-(3,5-difluorophenyl)-2,7-dimethyl-5,7-dihydro-4H-pyrazolo[3,4-c]pyridine-6-carbonyl]-5-fluoro-phenyl]-1H-pyridin-2-one] reads 388 nM; that for `C[C@H]1c2nn(C)c(-c3cc(F)c(F)c(F)c3)c2CCN1C(=O)c1cc(F)cc(-c2c[nH]c(C#N)c2)c1Cl` [Example 92, 4-[2-chloro-3-[(7S)-2,7-dimethyl-3-(3,4,5-trifluorophenyl)-5,7-dihydro-4H-pyrazolo[3,4-c]pyridine-6-carbonyl]-5-fluoro-phenyl]-1H-pyrrole-2-carbonitrile], 4.35 nM. In the case of `C[C@H]1c2nn(C)c(-c3cc(F)cc(F)c3)c2CCN1C(=O)c1cc(F)cc(CCc2cn[nH]c2)c1Cl` [Example 102, [2-chloro-5-fluoro-3-[2-(JH-pyrazol-4-yl)ethyl]phenyl]-[(7S)-3-(3,5-difluorophenyl)-2,7-dimethyl-5,7-dihydro-4H-pyrazolo[3,4-c]pyridin-6-yl]methanone] it was 1.53 nM.
